Reference: patent US10647690B2, “2,3-epoxy succinyl derivative, preparation method and use thereof” (Institute of Pharmacology and Toxicology Academy of …, priority 2016, dated 2020)
Where two headings read alike, the source gives them in different places.

Target: T1, Cathepsin K (Homo sapiens, UniProt P43235)
T1 construct: purchased Biovision K150-100
T1 sequence (P43235 115-329): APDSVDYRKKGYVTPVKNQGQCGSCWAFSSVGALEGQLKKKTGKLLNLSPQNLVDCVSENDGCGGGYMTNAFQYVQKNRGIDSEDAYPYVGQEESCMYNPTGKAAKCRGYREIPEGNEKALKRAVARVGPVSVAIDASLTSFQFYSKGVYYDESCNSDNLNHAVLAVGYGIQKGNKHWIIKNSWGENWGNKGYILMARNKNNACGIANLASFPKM
Experiment: Preliminary screening of Cathepsin K (Cathepsin K Inhibitor Screening Kit K150-100, Biovision)
Format: biochemical
Conditions: relative inhibition rate vs 10 μM FF-FMK control; for Inhibition % (1 μM) replicate 1 / Inhibition % (1 μM) replicate 2 / inhibition at 1 µM: 1 μM compound; for Inhibition % (10 μM) replicate 1 / Inhibition % (10 μM) replicate 2 / inhibition at 10 µM: 10 μM compound
Method: 1. Method for preliminary screening of Cathepsin K:
Preliminary screening of Cathepsin K was performed by using Cathepsin K Inhibitor Screening Kit (Product No. K150-100) from Biovision Company.
1.1.1 Preparation of Cathepsin K enzyme solution: Cathepsin K enzyme (40 μl) and Cathepsin K reagent (80 μl) were added to Cathepsin K buffer (3.88 ml), and were mixed well, to prepare Cathepsin K enzyme solution with a volume of 4 ml, which was placed on ice for further use.
1.1.2 Preparation of a compound solution: different compounds were separately weighed and dissolved in DMSO (methyl sulfoxide), to prepare solutions at a concentration of 30 mM as stock solutions, and for some insoluble compounds, they were prepared into solutions at a concentration of 10 mM as stock solutions; the 30 mM and 10 mM compound stock solutions were diluted to 1 mM and 100 μM DMSO solutions, respectively; 1 mM and 100 μM compound DMSO solutions (2 μl) were separately added to CTSK buffer (18 μl), to prepare compound solutions at a final concentration of 100 μM and 10 μM, respectively, wherein the concentration of DMSO was 10%.
1.1.3 Preparation of Cathepsin K substrate solution: Cathepsin K substrate (160 μl) was added to Cathepsin K buffer (3.44 ml), and mixed homogeneously, to prepare Cathepsin K substrate solution with a volume of 3.6 ml, which was placed on ice for further use.
1.2 Method for screening Cathepsin K inhibitor: Cathepsin K enzyme solution (prepared in Item 1.1.1) was added to a 384-well plate (ProxiPlate-384 Plus, Perkinelmer) at 10 μl/well, and centrifuged at 1000 rpm for 1 min; the compound solution (prepared in Item 1.1.2) was then added at 2 µl/well, and centrifuged at 1000 rpm for 1 min, and every concentration was repeated in two wells; the plate was placed in a 25° C. incubator for 15 min; Cathepsin K substrate solution was then added at 8 μl/well, and centrifuged at 1000 rpm for 1 min; and finally, the fluorescence signal was read in Enspire, wherein the exciting light was at a wavelength of 400 nm, the emitting light was at a wavelength of 505 nm, and continuous reading was performed at 37° C. for 120 min.
1.3 Data analysis: the slope (S) for all the samples was calculated by ΔRFU (RFU2−RFU1) and time ΔT (T2−T1), including negative control (Enzyme Control, EC) and positive control (Inhibitor Control, IC: 10 μM FF-FMK), and the calculation formula was as followed: Relative inhibition rate %=(SEC−SS)/(SEC−SIC)*100.

[1] = replicate 1, read-out: Inhibition % (1 μM) replicate 1
[2] = replicate 2, read-out: Inhibition % (1 μM) replicate 2
[3] = replicate 1, read-out: Inhibition % (10 μM) replicate 1
[4] = replicate 2, read-out: Inhibition % (10 μM) replicate 2

`CCOC(=O)[C@H]1O[C@@H]1C(=O)N[C@@H](CCSC)C(=O)NCCC(C)C` [Compound 1, (2s, 3s)-2-ethoxycarbonyl-3-[2-[(s)-4-methylthio-1-carbonyl-1-(isopentylamino)butane]formylamino]epoxysuccinic acid] was tested, and the “Inhibition % (1 μM) replicate 1” value (replicate 1) was 17.79%, the “Inhibition % (1 μM) replicate 2” value (replicate 2) was 20.59% and the “Inhibition % (10 μM) replicate 1” value (replicate 1) was 41.60%. The “Inhibition % (10 μM) replicate 2” value (replicate 2) was 47.08%.

`CCCCCNC(=O)[C@H](CCSC)NC(=O)[C@H]1O[C@@H]1C(=O)OCC` [Compound 2, (2s, 3s)-2-ethoxycarbonyl-3-[2-[(s)-4-methylthio-1-carbonyl-1-(pentylamino)butane]formylamino]epoxysuccinic acid] was tested, and the inhibition at 1 µM [1] was 28.6%, the inhibition at 1 µM [2] was 33.2% and the inhibition at 10 µM [3] was 59.5%. For the same compound, the inhibition at 10 µM [4] was 60%.

`CCOC(=O)[C@H]1O[C@@H]1C(=O)N[C@@H](CCSC)C(=O)NCC(C)CC` (stereo partly drawn) [Compound 3, (2s, 3s)-2-ethoxycarbonyl-3-[2-[(s)-4-methylthio-1-carbonyl-1-(2-methylbutylamino)butane]formylamino]epoxysuccinic acid] showed an inhibition at 1 µM [1] of 31%, an inhibition at 1 µM [2] of 16.6% and an inhibition at 10 µM [3] of 42%. It also gave an inhibition at 10 µM [4] of 36.7%.

Work on `CCCNC(=O)[C@H](CCSC)NC(=O)[C@H]1O[C@@H]1C(=O)OCC` [Compound 4, (2s, 3s)-2-ethoxycarbonyl-3-[2-[(s)-4-methylthio-1-carbonyl-1-(propylamino)butane]formylamino]epoxysuccinic acid] yielded an inhibition at 1 µM [1] of 15.6%, an inhibition at 1 µM [2] of 23.6% and an inhibition at 10 µM [3] of 31.6%. For the same compound, the inhibition at 10 µM [4] was 34.9%.

In the case of `CCCC(C)NC(=O)[C@H](CCSC)NC(=O)[C@H]1O[C@@H]1C(=O)OCC` (stereo partly drawn) [Compound 6, (2s, 3s)-2-ethoxycarbonyl-3-[2-[(s)-4-methylthio-1-carbonyl-1-(1-methylbutylamino)butane]formylamino]epoxysuccinic acid], the inhibition at 1 µM [1] is reported as 31.6%, the inhibition at 1 µM [2] is reported as 36.6% and the inhibition at 10 µM [3] is reported as 33%. It also gave an inhibition at 10 µM [4] of 39.1%.

Compound `CCOC(=O)[C@H]1O[C@@H]1C(=O)N[C@@H](CCSC)C(=O)N1CCCC(C)C1` (stereo partly drawn) [Compound 7, (2s, 3s)-2-ethoxycarbonyl-3-[2-[(s)-4-methylthio-1-carbonyl-1-(3-methylpiperidinyl)butane]formylamino]epoxysuccinic acid] has an inhibition at 1 µM [1] of 33%, an inhibition at 1 µM [2] of -19.6% and an inhibition at 10 µM [3] of 37.4%. It also gave an inhibition at 10 µM [4] of 28.4%.

`CCOC(=O)[C@H]1O[C@@H]1C(=O)N[C@@H](CCSC)C(=O)NCC(C)C` [Compound 9, (2s, 3s)-2-ethoxycarbonyl-3-[2-[(s)-4-methylthio-1-carbonyl-1-(isobutylamino)butane]formylamino]epoxysuccinic acid] was tested, and the inhibition at 1 µM [1] was 25.6%, the inhibition at 1 µM [2] was 18.1% and the inhibition at 10 µM [3] was 29.2%. For the same compound, the inhibition at 10 µM [4] was 28.8%.

Compound `CCOC(=O)[C@H]1O[C@@H]1C(=O)N[C@@H](CCSC)C(=O)NCCc1ccc(OC)cc1` [Compound 10, (2s, 3s)-2-ethoxycarbonyl-3-[2-[(s)-4-methylthio-1-carbonyl-1-(4-methoxyphenylethylamino)butane]formylamino]epoxysuccinic acid] has an inhibition at 1 µM [1] of 33.1%, an inhibition at 1 µM [2] of 35.8% and an inhibition at 10 µM [3] of 80.2%. The inhibition at 10 µM [4] was 66.5%.

`CCOC(=O)[C@H]1O[C@@H]1C(=O)N[C@@H](CCSC)C(=O)N1CCCC1` [Compound 11, (2s, 3s)-2-ethoxycarbonyl-3-[2-[(s)-4-methylthio-1-carbonyl-1-(tetrahydropyrrolyl)butane]formylamino]epoxysuccinic acid] showed an inhibition at 1 µM [1] of 15.3%, an inhibition at 1 µM [2] of -7.42% and an inhibition at 10 µM [3] of 32%. For the same compound, the inhibition at 10 µM [4] was 15.2%.

With `CCOC(=O)[C@H]1O[C@@H]1C(=O)N[C@@H](CCSC)C(=O)N1CCOCC1` [Compound 12, (2s, 3s)-2-ethoxycarbonyl-3-[2-[(s)-4-methylthio-1-carbonyl-1-(morpholinyl)butane]formylamino]epoxysuccinic id] the inhibition at 1 µM [1] was 15.4%, the inhibition at 1 µM [2] was 26.6% and the inhibition at 10 µM [3] was 44%. The inhibition at 10 µM [4] was 51.7%.

`CCOC(=O)[C@H]1O[C@@H]1C(=O)N[C@H](CSCc1ccccc1)C(=O)NCC(C)CC` (stereo partly drawn) [Compound 14, (2s, 3s)-2-ethoxycarbonyl-3-[2-[(s)-3-benzylthio-1-carbonyl-1-(2-methylbutylamino)propane]formylamino]epoxysuccinic acid] was tested, and the “Inhibition % (1 μM) replicate 1” value (replicate 1) was 31.16%, the “Inhibition % (1 μM) replicate 2” value (replicate 2) was −7.18% and the “Inhibition % (10 μM) replicate 1” value (replicate 1) was 42.39%. For the same compound, the “Inhibition % (10 μM) replicate 2” value (replicate 2) was 41.33%.

Compound `CCOC(=O)[C@H]1O[C@@H]1C(=O)N[C@@H](CSCc1ccccc1)C(=O)NCC(C)(C)C` [Compound 15, (2s, 3s)-2-ethoxycarbonyl-3-[2-[(s)-3-benzylthio-1-carbonyl-1-(neopentylamino)propane]formylamino]epoxysuccinic acid] has an inhibition at 1 µM [1] of 28.1%, an inhibition at 1 µM [2] of 35.6% and an inhibition at 10 µM [3] of 50.1%. It also gave an inhibition at 10 µM [4] of 48.6%.

Compound `CCOC(=O)[C@H]1O[C@@H]1C(=O)N[C@@H](CSCc1ccccc1)C(=O)NC(C)(C)CC` [Compound 16, (2s, 3s)-2-ethoxycarbonyl-3-[2-[(s)-3-benzylthio-1-carbonyl-1-(tert-pentylamino)propane]formylamino]epoxysuccinic acid] has an inhibition at 1 µM [1] of 38.9%, an inhibition at 1 µM [2] of 39.2% and an inhibition at 10 µM [3] of 60.8%. For the same compound, the inhibition at 10 µM [4] was 63.6%.

In the case of `CCCNC(=O)[C@H](CSCc1ccccc1)NC(=O)[C@H]1O[C@@H]1C(=O)OCC` [Compound 17, (2s, 3s)-2-ethoxycarbonyl-3-[2-[(s)-3-benzylthio-1-carbonyl-1-(propylamino)propane]formylamino]epoxysuccinic acid], the inhibition at 1 µM [1] is reported as 26.9%, the inhibition at 1 µM [2] is reported as 32.2% and the inhibition at 10 µM [3] is reported as 34.8%. The inhibition at 10 µM [4] was 31.7%.

With `CCCCCCNC(=O)[C@H](CSCc1ccccc1)NC(=O)[C@H]1O[C@@H]1C(=O)OCC` [Compound 18, (2s, 3s)-2-ethoxycarbonyl-3-[2-[(s)-3-benzylthio-1-carbonyl-1-(hexylamino)propane]formylamino]epoxysuccinic acid] the inhibition at 1 µM [1] was 23.5%, the inhibition at 1 µM [2] was 32.7% and the inhibition at 10 µM [3] was 56.1%. It also gave an inhibition at 10 µM [4] of 48.2%.

`CCOC(=O)[C@H]1O[C@@H]1C(=O)N[C@@H](CSCc1ccccc1)C(=O)NC(C)CC` (stereo partly drawn) [Compound 19, (2s, 3s)-2-ethoxycarbonyl-3-[2-[(s)-3-benzylthio-1-carbonyl-1-(1-methylpropylamino)propane]formylamino]epoxysuccinic acid] was tested, and the inhibition at 1 µM [1] was 32%, the inhibition at 1 µM [2] was 20.4% and the inhibition at 10 µM [3] was 33.5%. The inhibition at 10 µM [4] was 27.9%.

Work on `CCOC(=O)[C@H]1O[C@@H]1C(=O)N[C@@H](CSCc1ccccc1)C(=O)NCCCCc1ccccc1` [Compound 20, (2s, 3s)-2-ethoxycarbonyl-3-[2-[(s)-3-benzylthio-1-carbonyl-1-(4-phenylbutylamino)propane]formylamino]epoxysuccinic acid] yielded an inhibition at 1 µM [1] of 30.2%, an inhibition at 1 µM [2] of 37% and an inhibition at 10 µM [3] of 36.3%. For the same compound, the inhibition at 10 µM [4] was 50.4%.

`CCOC(=O)[C@H]1O[C@@H]1C(=O)N[C@@H](CSCc1ccccc1)C(=O)NCCc1ccc(C)cc1` [Compound 21, (2s, 3s)-2-ethoxycarbonyl-3-[2-[(s)-3-benzylthio-1-carbonyl-1-(p-methylphenylethylamino)propane]formylamino]epoxysuccinic acid] gave an inhibition at 1 µM [1] of 33.1%, an inhibition at 1 µM [2] of 29.9% and an inhibition at 10 µM [3] of 67.2%. For the same compound, the inhibition at 10 µM [4] was 53%.
